Data from paper PMC12054364, “Structure of the Fab fragment of a humanized 5E5 antibody to a cancer-specific Tn-MUC1 epitope” (Acta Crystallographica Section D: Structural Biology, 2025).
Ends that are not written are not given here. * marks the point of attachment. αGalNAc = CC(=O)N[C@@H]1[C@@H](O)[C@@H](O)[C@@H](CO)O[C@@H]1*

Experiments:
[1] = target: h-5E5 Fab; assay: SPR binding of doubly glycosylated Tn-MUC1 peptides to immobilized h-5E5 Fab; design: species or system humanized
Experimental: (§1) The binding kinetics of the h-5E5 Fab to doubly glycosylated Tn-MUC1 peptides were studied by surface plasmon resonance (SPR) using a Biacore T200 instrument (GE Healthcare). All experiments were performed at 25°C with HBS-EP (10 mM HEPES, 150 mM NaCl, 3 mM EDTA, 0.005% Tween 20 pH 7.4) as the running buffer. The purified h-5E5 Fab and an irrelevant 1104 Fab were immobilized [∼10 000 resonance units (RUs) each] on a Series S Sensor Chip CM7 (Cytiva) using an amine-coupling kit (Cytiva) in 10 mM acetate buffer pH 4.0 (Cytiva). Serial dilutions of doubly glycosylated Tn-MUC1 peptides in HBS-EP buffer were injected at a flow rate of 20 µl min^−1 over flow cells containing immobilized h-5E5 Fab and the 1104 Fab (as a negative control). The reference flow cell was blocked with ethanolamine. The association time was set to 30 s and the dissociation time to 60 s. After each run, the sensor chip was regenerated with HBS-EP buffer. The concentrations of the analytes injected were 6.25, 12.5, 25, 50 and 100 µM. The analytes were two doubly glycosylated Tn-MUC1 peptides, PAPGS*T*AP and APGS*T*AP, where * represents GalNAc. Reference flow cell subtracted sensorgrams were analyzed with BIAevaluation Software v.3.2 (Cytiva) and affinities were determined by steady-state analysis from three experimental replicates. PAPGS*T*AP binding to amine-coupled 5E5 mAb (∼25 000 RUs) was determined under the same conditions described for the Fab.

[2] = target: h-5E5 mAb; assay: SPR binding of PAPGS*T*AP to immobilized h-5E5 mAb; design: species or system humanized; details: amine-coupled mAb (∼25 000 RU), same conditions as for the Fab, steady-state
Experimental: as §1, with “The analytes were two doubly glycosylated Tn-MUC1 peptides, PAPGS*T*AP and APGS*T*AP, where * represents GalNAc.” left out

[3] = system: 1104 Fab; assay: SPR negative control: glycopeptides over immobilized irrelevant 1104 Fab; format: binding; details: amine-coupled Fab 1104 (∼10 000 RU), peptide 6.25-100 µM, HBS-EP pH 7.4, 25°C
Experimental: as §1, with “The analytes were two doubly glycosylated Tn-MUC1 peptides, PAPGS*T*AP and APGS*T*AP, where * represents GalNAc.” left out

[4] = target: Fab fragment of the humanized 5E5 antibody (h-5E5 Fab) (humanized from mouse | human) (UniProt P01834); assay: SPR; Biacore T200; h-5E5 Fab amine-coupled (~10 000 RU) on a CM7 chip; glycopeptides flowed at 6.25-100 µM, 20 µl/min; 25°C; HBS-EP (10 mM HEPES, 150 mM NaCl, 3 mM EDTA, 0.005% Tween 20 pH 7.4); steady-state analysis, three replicates
[5] = target: humanized 5E5 monoclonal antibody (h-5E5 mAb) (humanized from mouse | human) (UniProt P01834); assay: SPR; 5E5 mAb amine-coupled (~25 000 RU); PAPGS*T*AP flowed; same conditions as for the Fab (25°C, HBS-EP); steady-state analysis
[6] = immobilized h-5E5 Fab, HBS-EP pH 7.4, 25°C

PAPGS*T*AP [doubly glycosylated Tn-MUC1 peptide, where * represents GalNAc]
Kd ([1]; Biacore T200, 25°C, HBS-EP (10 mM HEPES, 150 mM NaCl, 3 mM EDTA, 0.005% Tween 20 pH 7.4), Fab amine-coupled ∼10 000 RU on CM7 chip, peptide 6.25-100 µM, 20 µl/min, association 30 s, dissociation 60 s, steady-state analysis, three experimental replicates): 40.7 ± 0.1 µM | observed Rmax [1, 6]: 165 RU | observed Rmax as % of the theoretical Rmax [1, 6]: 70% | Kd [2]: 43.9 µM | binding to control surface [3]: Neither glycopeptide bound to the control surface

APGS(αGalNAc)T(αGalNAc)AP [doubly glycosylated Tn-MUC1 peptide APGS*T*AP]
Kd [4]: 60.9 µM

PAPGS(αGalNAc)T(αGalNAc)AP [doubly glycosylated Tn-MUC1 peptide PAPGS*T*AP]
Kd [4]: 40.7 µM | Kd [5]: 43.9 µM
